Measurements from patent publication US20150352108A1, “AMINO-PYRIMIDINE COMPOUNDS AS INHIBITORS OF TBK1 AND/OR IKK EPSILON” (Alzheimer's Institute of America, priority 2009, published 2015).

Target: T1, IKKε (Homo sapiens, UniProt Q14164)
T1 construct: His-tag; made in house; host or cells: Sf9 insect cells
T1 sequence (Q14164 1-716): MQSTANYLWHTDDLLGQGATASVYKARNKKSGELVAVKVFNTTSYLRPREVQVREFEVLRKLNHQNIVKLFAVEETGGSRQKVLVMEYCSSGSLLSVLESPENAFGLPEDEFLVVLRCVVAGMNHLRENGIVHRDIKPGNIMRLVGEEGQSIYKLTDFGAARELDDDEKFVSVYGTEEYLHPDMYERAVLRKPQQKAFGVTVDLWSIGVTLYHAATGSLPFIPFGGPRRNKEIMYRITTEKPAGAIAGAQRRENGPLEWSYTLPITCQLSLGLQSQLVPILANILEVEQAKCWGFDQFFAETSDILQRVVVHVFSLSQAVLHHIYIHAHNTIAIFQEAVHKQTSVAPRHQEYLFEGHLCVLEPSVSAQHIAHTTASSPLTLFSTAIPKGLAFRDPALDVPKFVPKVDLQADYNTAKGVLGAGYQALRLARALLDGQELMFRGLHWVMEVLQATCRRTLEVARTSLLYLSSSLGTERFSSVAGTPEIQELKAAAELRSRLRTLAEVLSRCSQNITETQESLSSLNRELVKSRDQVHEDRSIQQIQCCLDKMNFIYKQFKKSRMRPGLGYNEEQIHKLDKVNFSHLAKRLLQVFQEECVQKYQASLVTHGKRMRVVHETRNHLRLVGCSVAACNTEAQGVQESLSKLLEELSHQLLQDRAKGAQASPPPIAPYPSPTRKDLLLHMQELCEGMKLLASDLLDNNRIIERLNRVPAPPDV
Assay: In-vitro IKKε kinase assay ([γ33]ATP filter-plate)
Assay type: biochemical
Details: text bins; read-out: IC50 for inhibition of the kinase activity of IKKε
Summary of the method: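 His-tagged IKKε and TBK1 from Sf9 cells were assayed with myelin basic protein or casein and [γ33]ATP at 2×Km ATP (32 μM for IKKε, 60 μM for TBK1). Enzyme was 0.1 or 0.015 μg/ml for IKKε and 0.1 or 0.02 μg/ml for TBK1 (normal/sensitized). Reactions ran 30-45 min, were filter-captured, scintillation-counted, and normalized to DMSO after background subtraction.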

SMILES	IC50 [nM]
CC(C)(COc1ccc(-c2ccnc(Nc3ccc(N4CCOCC4)cc3)n2)cc1C#N)C(=O)N1CCOCC1 [compound 459, 2-[2,2-dimethyl-3-(morpholin-4-yl)-3-oxopropoxy]-5-(2-{[4-(morpholin-4-yl)phenyl]amino}pyrimidin-4-yl)benzonitrile]	50 to 500
CC(C)NCCc1ccc(Nc2nccc(-c3ccc(NC(=O)C(C)C)c(C#N)c3)n2)cc1 [compound 462, N-{2-cyano-4-[2-({4-[2-(propan-2-ylamino)ethyl]phenyl}amino)pyrimidin-4-yl]phenyl}-2-methylpropanamide]	5 to 50
CC(C)C(=O)Nc1ccc(-c2ccnc(Nc3ccc(CCO)cc3)n2)cc1C#N [compound 464, N-[2-cyano-4-(2-{[4-(2-hydroxyethyl)phenyl]amino}pyrimidin-4-yl)phenyl]-2-methylpropanamide]	5 to 50
CC(=O)N1CCC(COc2ccc(-c3ccnc(Nc4ccc(N5CCOCC5)cc4)n3)cc2C#N)C1 (centres unmarked) [compound 469, 2-[(1-acetylpyrrolidin-3-yl)methoxy]-5-(2-{[4-(morpholin-4-yl)phenyl]amino}pyrimidin-4-yl)benzonitrile]	5 to 50
N#Cc1cc(-c2ccnc(Nc3ccc(N4CCOCC4)cc3)n2)ccc1OCCC1CCNCC1 [compound 472, 5-(2-{[4-(morpholin-4-yl)phenyl]amino}pyrimidin-4-yl)-2-[2-(piperidin-4-yl)ethoxy] benzonitrile]	50 to 500
N#Cc1cc(-c2ccnc(Nc3ccc(N4CCOCC4)cc3)n2)ccc1OC1CN(CCO)C1 [compound 474, 2-{[1-(2-hydroxyethyl)azetidin-3-yl]oxy}-5-(2-{[4-(morpholin-4-yl)phenyl]amino}pyrimidin-4-yl)benzonitrile]	50 to 500
COc1cc(Nc2nccc(-c3ccc(OC4CCN(C(=O)CO)C4)c(C#N)c3)n2)ccc1N1CCC(N2CCN(C)CC2)CC1 (centres unmarked) [compound 513, 2-{[1-(hydroxyacetyl)pyrrolidin-3-yl]oxy}-5-[2-({3-methoxy-4-[4-(4-methylpiperazin-1-yl)piperidin-1-yl]phenyl}amino)pyrimidin-4-yl]benzonitrile]	50 to 500
COc1cc(Nc2nccc(-c3ccc(OC4CCOCC4)c(C#N)c3)n2)ccc1N1CCC(N2CCN(C)CC2)CC1 [compound 514, 5-[2-({3-methoxy-4-[4-(4-methylpiperazin-1-yl)piperidin-1-yl]phenyl}amino)pyrimidin-4-yl]-2-(tetrahydro-2H-pyran-4-yloxy)benzonitrile]	50 to 500
N#Cc1cccc(-c2nc(Nc3ccc(N4CCOCC4)cc3)nc3[nH]cnc23)c1 [compound 562, 3-(2-{[4-(Morpholin-4-yl)phenyl]amino}-3H-purain-6-yl)benzonitrile]	50 to 500
N#Cc1cc(-c2ccnc(Nc3ccc(F)c(F)c3)n2)ccc1O[C@@H]1CCN(C(=O)CO)C1 [compound 582, 5-{2-[(3,4-Difluorophenyl)amino]pyrimidin-4-yl}-2-{[(3R)-1-(hydroxyacetyl)pyrrolidin-3-yl]oxy}benzonitrile]	5 to 50
COC1CN(C(C)c2ccc(Nc3nccc(-c4ccc(O[C@@H]5CCN(C(=O)CO)C5)c(C#N)c4)n3)cc2)C1 (some centres unmarked) [compound 602]	5 to 50
N#Cc1cc(-c2ccnc(Nc3ccc(C#Cc4cccnc4)cc3)n2)ccc1OC1CCOCC1 [compound 605, 5-(2-{[4-(Pyridin-3-ylethynyl)phenyl]amino}pyrimidin-4-yl)-2-(tetrahydro-2H-pyran-4-yloxy)benzonitrile]	5 to 50
COc1cc(Nc2nccc(-c3ccc(OCC4CC4)c(C#N)c3)n2)ccc1C(=O)N1CC(OC)C1 [compound 621, 2-(Cyclopropylmethoxy)-5-[2-({3-methoxy-4-[(3-methoxyazetidin-1-yl)carbonyl]phenyl}amino)pyrimidin-4-yl]benzonitrile]	< 5

Further lines, results first:

IC50 [nM]	SMILES
< 5	COC1CCN(c2cccc(Nc3nccc(-c4ccc(O[C@@H]5CCN(C(=O)CO)C5)c(C#N)c4)n3)c2)C1 (stereo partly drawn) [compound 546, 2-{[(3R)-1-(Hydroxyacetyl)pyrrolidin-3-yl]oxy}-5-(2-{[3-(3-methoxypyrrolidin-1-yl)phenyl]amino}pyrimidin-4-yl)benzonitrile]
< 5	N#Cc1cc(-c2ccnc(Nc3cccc(-c4cccnc4)c3)n2)ccc1OC1CCOCC1 [compound 549, 5-(2-{[3-(Pyridin-3-yl)phenyl]amino}pyrimidin-4-yl)-2-(tetrahydro-2H-pyran-4-yloxy)benzonitrile]
< 5	N#Cc1cc(-c2ccnc(Nc3ccc(-c4cccnc4)cc3)n2)ccc1OC1CCOCC1 [compound 550, 5-(2-{[4-(Pyridin-3-yl)phenyl]amino}pyrimidin-4-yl)-2-(tetrahydro-2H-pyran-4-yloxy)benzonitrile]
< 5	N#Cc1cc(-c2ccnc(Nc3cccc(-n4ccnc4)c3)n2)ccc1OC1CCOCC1 [compound 560, 5-(2-{[3-(1H-Imidazol-1-yl)phenyl]amino}pyrimidin-4-yl)-2-(tetrahydro-2H-pyran-4-yloxy)benzonitrile]
< 5	N#Cc1cc(-c2ccnc(Nc3cccc(-c4ccncc4)c3)n2)ccc1OC1CCOCC1 [compound 573, 5-(2-{[3-(Pyridin-4-yl)phenyl]amino}pyrimidin-4-yl)-2-(tetrahydro-2H-pyran-4-yloxy)benzonitrile]
< 5	N#Cc1cc(-c2ccnc(Nc3ccc(S(=O)(=O)Nc4nccs4)cc3)n2)ccc1OC1CCOCC1 [compound 575, 4-({4-[3-Cyano-4-(tetrahydro-2H-pyran-4-yloxy)phenyl]pyrimidin-2-yl}amino)-N-(1,3-thiazol-2-yl) benzenesulfonamide]
< 5	N#Cc1cc(-c2ccnc(Nc3cccc(Cn4ccnn4)c3)n2)ccc1OC1CCOCC1 [compound 576, 2-(Tetrahydro-2H-pyran-4-yloxy)-5-(2-{[3-(1H-1,2,3-triazol-1-ylmethyl)phenyl]amino}pyrimidin-4-yl)benzonitrile]
< 5	N#Cc1cc(-c2ccnc(Nc3ccc(-c4cn[nH]c4)cc3)n2)ccc1OC1CCOCC1 [compound 579, 5-(2-{[4-(1H-Pyrazol-4-yl)phenyl]amino}pyrimidin-4-yl)-2-(tetrahydro-2H-pyran-4-yloxy)benzonitrile]
< 5	Cn1cc(-c2ccc(Nc3nccc(-c4ccc(OC5CCOCC5)c(C#N)c4)n3)cc2)cn1 [compound 584, 5-(2-{[4-(1-Methyl-1H-pyrazol-4-yl)phenyl]amino}pyrimidin-4-yl)-2-(tetrahydro-2H-pyran-4-yloxy)benzonitrile]
< 5	COc1cc(Nc2nccc(-c3ccc(OCC(C)C)c(C#N)c3)n2)ccc1C(=O)N1CC(OC)C1 [compound 587, 5-[2-({3-Methoxy-4-[(3-methoxyazetidin-1-yl)carbonyl]phenyl}amino)pyrimidin-4-yl]-2-(2-methylpropoxy) benzonitrile]
< 5	N#Cc1cc(-c2ccnc(Nc3cccc(NC(=O)NC4CCC(O)CC4)c3)n2)ccc1OC1CCOCC1 (centres unmarked) [compound 589, 1-[3-({4-[3-Cyano-4-(tetrahydro-2H-pyran-4-yloxy)phenyl]pyrimidin-2-yl}amino)phenyl]-3-(4-hydroxycyclohexyl) urea]
< 5	N#Cc1cc(-c2ccnc(Nc3cccc(Cn4cnnc4)c3)n2)ccc1OC1CCOCC1 [compound 595, 2-(Tetrahydro-2H-pyran-4-yloxy)-5-(2-{[3-(4H-1,2,4-triazol-4-ylmethyl)phenyl]amino}pyrimidin-4-yl)benzonitrile]
< 5	N#Cc1cc(-c2ccnc(Nc3cccc(NC(=O)N4CC(O)C4)c3)n2)ccc1OC1CCOCC1 [compound 598, N-[3-({4-[3-Cyano-4-(tetrahydro-2H-pyran-4-yloxy)phenyl]pyrimidin-2-yl}amino)phenyl]-3-hydroxyazetidin-1-carboxamide]
< 5	N#Cc1cc(-c2ccnc(Nc3cccc(N4CCN(CCO)CC4)c3)n2)ccc1O[C@@H]1CCN(C(=O)CO)C1 [compound 604, 2-{[(3R)-1-(Hydroxyacetyl)pyrrolidin-3-yl]oxy}-5-[2-({3-[4-(2-hydroxyethyl)piperazin-1-yl]phenyl}amino)pyrimidin-4-yl]benzonitrile]
< 5	N#Cc1cc(-c2ccnc(Nc3ccc(-c4ccncc4)cc3)n2)ccc1OC1CCOCC1 [compound 610, 5-(2-{[4-(Pyridin-4-yl)phenyl]amino}pyrimidin-4-yl)-2-(tetrahydro-2H-pyran-4-yloxy)benzonitrile]
< 5	N#Cc1cc(-c2ccnc(Nc3ccc(CN4CC(O)C4)cc3)n2)ccc1O[C@@H]1CCN(C(=O)CO)C1 [compound 615, 2-{[(3R)-1-(Hydroxyacetyl)pyrrolidin-3-yl]oxy}-5-[2-({4-[(3-hydroxyazetidin-1-yl)methyl]phenyl}amino)pyrimidin-4-yl]benzonitrile]
